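Method: 48-hour compound exposure of cells in 96-well plates, five concentrations, linear interpolation of endpoints. The concentration for 50% growth inhibition is given as GI50. The concentration for full growth arrest is given as TGI.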 Where only a bound is given, the exact number is not on record here.

These results are taken from PubChem BioAssay (NCI).

Test systems include SF-295 CNS; HCC-2998 colon; IGROV1 ovarian; COLO 205 colon; NCI-H522 lung; OVCAR-3 ovarian; RPMI-8226 leukemia; SF-539 CNS; RXF 393 renal; OVCAR-4 ovarian.
Holding throughout (assay): inhibition of tumour cell growth, NCI panel, 48 h

As for `O=C(Nc1ccc(-n2ccc3c(NC(=O)c4ccccc4)nccc32)cc1)c1ccc(N2CCOCC2)c(C(F)(F)F)c1`, the GI50 in the assay with SF-295 CNS was 0.0621 µM; in the assay on HCC-2998 colon, 0.6 µM; in the assay on IGROV1 ovarian it was 0.192 µM; with COLO 205 colon, 0.364 µM; with NCI-H522 lung it was 0.363 µM; in the assay with OVCAR-3 ovarian it was 0.254 µM. In addition, the GI50 with RPMI-8226 leukemia is 0.0912 µM; with SF-539 CNS it was 0.0513 µM; in the assay with RXF 393 renal it was 0.194 µM; with OVCAR-4 ovarian it was 7.09 µM. Besides, the TGI is 1.7 µM in the assay on SF-295 CNS; more than 53 µM in the assay with HCC-2998 colon; more than 42.6 µM with IGROV1 ovarian; 32.4 µM in the assay with COLO 205 colon; 18.2 µM with NCI-H522 lung; 9.89 µM with OVCAR-3 ovarian. The TGI is more than 100 µM in the assay with RPMI-8226 leukemia, 6.79 µM in the assay on SF-539 CNS, 1.48 µM in the assay on RXF 393 renal and more than 60.8 µM in the assay with OVCAR-4 ovarian.
`O=C(COC(=O)c1cccc2c(=O)c3ccccc3[nH]c12)Nc1ccc(S(=O)(=O)Nc2ncccn2)cc1`: the TGI was more than 100 µM with SF-295 CNS; more than 100 µM with HCC-2998 colon; more than 100 µM with IGROV1 ovarian; more than 100 µM in the assay on COLO 205 colon; 58.2 µM in the assay on NCI-H522 lung; 51.7 µM in the assay with OVCAR-3 ovarian. The TGI in the assay on RPMI-8226 leukemia was more than 100 µM; with SF-539 CNS, 39.1 µM; in the assay on RXF 393 renal, more than 100 µM; in the assay with OVCAR-4 ovarian it was more than 100 µM.
Regarding `COc1ccc(-c2cc(-c3ccc(Cl)cc3)nc(SCCCCCCC(=O)NO)n2)cc1`, the GI50 in the assay with SF-295 CNS is 1.22 µM; in the assay with HCC-2998 colon it was 2.01 µM; with IGROV1 ovarian, 1.41 µM; in the assay on COLO 205 colon, 1.88 µM; with NCI-H522 lung, 1.2 µM; in the assay with OVCAR-3 ovarian, 1.49 µM. The GI50 in the assay with RPMI-8226 leukemia was 1.12 µM; with SF-539 CNS, 1.63 µM; in the assay on RXF 393 renal it was 1.27 µM; in the assay on OVCAR-4 ovarian, 2.05 µM. The TGI with SF-295 CNS came out at 3.01 µM; in the assay with HCC-2998 colon, 8.37 µM; in the assay on IGROV1 ovarian, 12.5 µM; with COLO 205 colon, 11.5 µM; with NCI-H522 lung it was 7.86 µM; with OVCAR-3 ovarian, 6.85 µM. Moreover, the TGI with RPMI-8226 leukemia is more than 50 µM; in the assay with SF-539 CNS, 6.44 µM; in the assay on RXF 393 renal it was 3.69 µM; in the assay with OVCAR-4 ovarian, 43.1 µM.
Take `COc1ccccc1N1CCN(CCCOc2ccc(C(=O)/C=C3/C(=O)Nc4ccccc43)cc2)CC1`: the GI50 was 12.5 µM with SF-295 CNS; 13.9 µM in the assay on HCC-2998 colon; 12.1 µM in the assay with IGROV1 ovarian; 12.7 µM in the assay on COLO 205 colon; 11.9 µM with NCI-H522 lung; 7.37 µM in the assay with OVCAR-3 ovarian. The GI50 with RPMI-8226 leukemia is 2.6 µM; in the assay with SF-539 CNS it was 15.8 µM; in the assay with RXF 393 renal it was 11.2 µM; in the assay on OVCAR-4 ovarian, 6.6 µM. Also, the TGI with SF-295 CNS came out at 32.4 µM; in the assay on HCC-2998 colon, 32 µM; in the assay with IGROV1 ovarian, 37.6 µM; with COLO 205 colon, 33.2 µM; in the assay on NCI-H522 lung, 34.4 µM; in the assay on OVCAR-3 ovarian, 42.3 µM. For the same molecule, the TGI with RPMI-8226 leukemia was 28.6 µM; in the assay on SF-539 CNS, 40.4 µM; with RXF 393 renal it was 27.5 µM; with OVCAR-4 ovarian it was 51.2 µM.
With `CC(=O)OC1(C#N)CC2OC1C1N=NN(C(=O)OC(C)(C)C)C21` (stereo unspecified), the TGI in the assay with SF-295 CNS is more than 100 µM; in the assay on HCC-2998 colon, more than 100 µM; with IGROV1 ovarian it was more than 31.6 µM; in the assay on COLO 205 colon it was more than 100 µM; with NCI-H522 lung it was more than 100 µM; in the assay on OVCAR-3 ovarian it was more than 80.6 µM. The TGI in the assay with RPMI-8226 leukemia was more than 100 µM; in the assay with SF-539 CNS, more than 100 µM; in the assay with RXF 393 renal it was more than 31.6 µM; in the assay with OVCAR-4 ovarian, more than 31.6 µM.
Turning to `Cc1ccccc1C[P+](c1ccccc1)(c1ccccc1)c1ccccc1`, the GI50 was 2.34 µM in the assay with SF-295 CNS; 0.888 µM in the assay on HCC-2998 colon; 2.42 µM in the assay on IGROV1 ovarian; 1.16 µM in the assay on COLO 205 colon; 0.78 µM in the assay on NCI-H522 lung; 1 µM in the assay with OVCAR-3 ovarian. Moreover, the GI50 is 0.39 µM with RPMI-8226 leukemia, 2.34 µM in the assay on SF-539 CNS, 4.5 µM with RXF 393 renal and 0.64 µM in the assay on OVCAR-4 ovarian. In addition, the TGI with SF-295 CNS is more than 100 µM; in the assay with HCC-2998 colon, 24.2 µM; in the assay on IGROV1 ovarian, more than 100 µM; in the assay with COLO 205 colon it was 3.28 µM; in the assay on NCI-H522 lung it was 5.73 µM; in the assay with OVCAR-3 ovarian, more than 100 µM. Besides, the TGI was 5.4 µM in the assay with RPMI-8226 leukemia, more than 100 µM in the assay with SF-539 CNS, 37.1 µM in the assay on RXF 393 renal and 9.39 µM in the assay on OVCAR-4 ovarian.
As for `C[C@@]1(O)CCC[C@H]1n1c(=O)c(C(F)F)cc2cnc(NC3CCN(S(C)(=O)=O)CC3)nc21`, the GI50 with SF-295 CNS was 1.83 µM; with HCC-2998 colon it was 0.539 µM; in the assay with IGROV1 ovarian, 1.38 µM; in the assay with NCI-H522 lung, 2.66 µM; in the assay with RPMI-8226 leukemia, 1.11 µM; in the assay on SF-539 CNS it was 1.17 µM. The GI50 in the assay with RXF 393 renal is 1.24 µM; in the assay on OVCAR-4 ovarian it was 1.76 µM. Besides, the TGI in the assay on SF-295 CNS is 16.2 µM; in the assay on HCC-2998 colon, more than 100 µM; in the assay on IGROV1 ovarian, 43.7 µM; in the assay with NCI-H522 lung, 15.3 µM; in the assay with RPMI-8226 leukemia, 8.64 µM; in the assay with SF-539 CNS, 3.45 µM. The TGI in the assay on RXF 393 renal was 2.9 µM; with OVCAR-4 ovarian, more than 100 µM.
Regarding `CCN(CC)CCOc1ccc(Cc2ccccc2)cc1`, the GI50 in the assay on SF-295 CNS was 13.2 µM; in the assay with HCC-2998 colon, 38.7 µM; with IGROV1 ovarian, 24 µM; with COLO 205 colon, 16.1 µM; in the assay with NCI-H522 lung, 18.4 µM; with OVCAR-3 ovarian, 26.9 µM. Also, the GI50 in the assay on RPMI-8226 leukemia is 20.7 µM; in the assay with SF-539 CNS, 32.1 µM; in the assay on RXF 393 renal, 24.8 µM; in the assay on OVCAR-4 ovarian, 33.5 µM. For the same molecule, the TGI in the assay with SF-295 CNS is 31.4 µM; in the assay on HCC-2998 colon, more than 100 µM; with IGROV1 ovarian, 74.6 µM; in the assay on COLO 205 colon, 31.5 µM; in the assay with NCI-H522 lung it was more than 100 µM; in the assay on OVCAR-3 ovarian, more than 100 µM. Also, the TGI in the assay with RPMI-8226 leukemia is 76.1 µM; in the assay on SF-539 CNS, more than 100 µM; in the assay with RXF 393 renal it was 88.8 µM; in the assay with OVCAR-4 ovarian, more than 100 µM.
Take `Clc1nc(-c2ccccc2)nc(Cl)c1Cl`: the TGI was 31.5 µM with SF-295 CNS; 20.5 µM in the assay on HCC-2998 colon; 21.6 µM in the assay with IGROV1 ovarian; 23 µM in the assay on COLO 205 colon; 9.95 µM in the assay with NCI-H522 lung; 21.7 µM with OVCAR-3 ovarian. The TGI in the assay on RPMI-8226 leukemia turned out to be 28.1 µM; in the assay with SF-539 CNS it was 33.9 µM; in the assay with RXF 393 renal, 18.9 µM; in the assay with OVCAR-4 ovarian it was 38.9 µM.
